Here are results for 5 molecules from US5162302A, “Endocrine manipulation to improve body composition of poultry” (University of Delaware, priority 1990, dated 1992).

Like-named read-outs stand apart in the source and are kept apart here. Bounds are passed on as bounds.

The nature of series [1]: Three daily intravenous injections of GRF and dietary T3: growth, feed efficiency, body composition (Example 2). Type of series: in vivo, broiler chickens. The text has this:
Bird management. Day-old broiler cockerels (Ross X Arbor Acre strain) were obtained from a commercial hatchery (Longnecker Hatchery, Elizabethtown, PA) and randomly assigned in groups of four birds to pens in a heated-battery brooder. Chicks were provided with a commercial broiler-starter ration (Pennfield Corp., Lancaster, PA), containing 3100 kcal metabolizable energy/kg feed and 23% crude protein, and water ad libitum. At 3 weeks of age, birds were transferred to wire pens held in a controlled-environment room. From 3 to 7 weeks of age, birds were maintained under a 20L:4D light-dark cycle at 21° C. and continuously provided with water and a commercial broiler-finisher ration containing 3250 kcal metabolizable energy/kg feed and 20% crude protein. Broiler cockerels were given three daily intravenous injections of either buffer (0.1M phosphate buffer, pH 7.0; BC) or GRF dissloved in buffer (25 μg/kg body weight) at 0800, 1600, and 2400 hr.
Dietary T3 and GRF Treatments. Four treatments were randomly assigned to pens in a randomized-complete-block design with three replicate pens per treatment. […] All birds were weighted at three day intervals to adjust the daily GRF dosage. Recombinant-derived human growth hormone-releasing factor (rhGRF1-44) was obtained from Pitman-Moore, Inc. (Terre Haute, IN).
The average daily gain (ADG), average daily feed consuption (ADFC) and the gain-to-feed ratio (GTF) were determined for the two week period (5 to 7 weeks of age). At the end of the experiment (7 weeks of age), each bird was killed to obtain the final body, abdominal fat and liver weights. Carcasses were frozen for determination of body composition as described in Example 1.
Statistical analyses. A randomized-complete-block design was used in which the four treatments were replicated in three pens. The growth data were analyzed with the pen as the experimental unit, since feed comsumption was determined for each pen of four birds. Significant differences (P≤0.05) due to the main effect of treatment were determined by Fisher's Least Significant Difference test.

The conditions of series [2]: 0.25 to 1 ppm in diet throughout the entire growth cycle; cited from earlier work.
Series [3] is described as follows: Dietary T3 in finishing feed, dose-response: plasma T3, muscle protein turnover, fat, growth, hormones.
Series [4] can be described thus: Three daily intramuscular injections of GRF and dietary T3: growth, feed efficiency, body composition (Example 1). The series is classed as in vivo, broiler chickens. As for the experimental part:
Bird management. One day-old broiler cockerels (Ross x Arbor acre) were obtained from a commercial hatchery (Perdue Hatchery, Salisburg, MD). Five birds were randomly assigned to each of 24 pens during the first three weeks. Birds were housed in a Petersime battery-brooder and maintained in a environmentally controlled room on a 20L:4D light/dark cycle. The temperature was held at 33° C. for the first week and reduced 3° C. at weekly intervals. During this period, the chicks were provided with commercial starter ration (3100 kcal ME/kg and 22% crude protein) and water ad libitum.
At 3 weeks-of-age, four birds per pen were moved to wire cages. From 3 to 4 weeks of age, birds were fed a commercial broiler grower/finisher ration containing 19% crude protein and 3200 kcal metabolizable energy/kg. At 4 weeks of age, birds were fed a special high-protein ration that contained 25% crude protein and 3250 kcal ME/kg feed (See Table 1). […] During the experimental period (5 to 7 weeks of age), individual body weights and feed consumption were determined at weekly intervals for calculation of average daily gain (ADG), average daily feed consumption (ADFC) and gain-to-feed ratio (GTF).
Hormone treatments. […] Synthetic human pancreatic growth releasing factor (hpGRF1-44) was obtained from Pitman-Moore, Inc. (Terre Haute, IN). […] Begining at 35 days of age, broiler cockerels were given three daily intramuscular injections of buffer (0.05M sodium acetate, pH 5.0) or GRF dissolved in buffer (10 μg/kg body weight) each day at 0800, 1600, and 2400 hr. Each bird was weighed a 3 day intervals to adjust GRF dosage.
At 49 days of age, chickens were starved for 24 hours and killed for determination of final body, abdominal fat pad, and liver weights. Carcasses from one-half of the birds in each pen (2 birds/pen) were frozen for determination of body composition by proximate analysis. Each frozen carcass, including the liver and abdominal fat, was ground twice in meat grinder fitted with a one-quarter inch dye (Biro Model 5, Biro Mfg. Co., Marblehead, OH). Aliquots of the ground meat were dried at 80° C. for moisture determination. Dried samples were analyzed for protein by macro-Kjeldahl, fat by ether extraction, and ash contents according to established analytical procedures. Body composition data are presented as a percent of final body weight at 7 weeks of age.
Statistical analyses. All data were analyzed with the pen as the experimental unit since dietary treatments were applied to the pen and feed consumption was determined for each pen. Least squares regression analysis was used to test for effects of treatments on ADG, ADFC, GTF, body weight and body composition. Significant differences (P<0.05) among treatments were determined by Fisher's least significant difference test.

For series [5] the following is noted: 1 to 10 μg TRH/day i.v. from 4 to 6 or 8 weeks-of-age; cited from earlier work.
The conditions of series [6]: TRH 1 or 10 μg/kg/day, GRF 10 μg/kg/day i.v., 21 days, cited from earlier work.
The nature of series [7]: Protein:fat ratio of broiler chickens under hormone treatments. The series is classed as in vivo. The following applies: at the doses tested.
The conditions of series [8]: induced hypothyroid state; cited from earlier work.
For series [9] the following is noted: finishing pigs, injection; cited from earlier work.
Setting [10] is: 5 to 7 weeks of age, T3 0.25 ppm, GRF 25 μg/kg i.v. 3x daily, mean ± SEM of three pens.
Where [11] appears, read: 7 weeks of age, i.v. GRF, mean ± SEM of twelve cockerels.
Setting [12] is: 7 weeks of age, i.v. GRF, twelve cockerels.
Setting [13] is: 0.25 ppm T3, compared to the control group.
The mark [14] stands for this setting: plasma thyroid hormone bioactivity 360-1200% of normal.
The mark [15] stands for this setting: 5 to 7 weeks of age, T3 0.25 ppm, GRF 10 μg/kg i.m. 3x daily, mean ± SEM of four pens.
Setting [16] is: 7 weeks of age, i.m. GRF, four pens (2 birds/pen).
Setting [17] is: 7 weeks of age, i.m. GRF, mean ± SEM of four pens.

In the case of `N[C@@H](Cc1cc(I)c(Oc2ccc(O)c(I)c2)c(I)c1)C(=O)O` [T3, 3,3',5-triiodo-L-thyronine], in series [1] (5 to 7 weeks of age, T3 0.25 ppm in feed, GRF 25 μg/kg i.v. three times daily, mean ± SEM of three pens), the “ADG (average daily weight gain)” value was found to be 70.7 ± 5.3. In addition, in series [1] (setting [10]), the “ADFC (average daily feed consumption)” value is reported as 157.0 ± 7.2 and the “GTF (gain-to-feed ratio)” value came out at 0.448 ± 0.021. For the same molecule, in [1] (7 weeks of age, vs control), the “Increase of body water content” value was 2% and the “Reduction of body fat content” value is recorded as 10%. In addition, in series [1] (setting [11]), the “Final body weight BW” value was determined as 2.82 ± 0.06 kg, the “Relative weight of abdominal fat” value is recorded as 1.54 ± 0.14 % BW and the “Relative weight of liver” value came to 2.06 ± 0.05 % BW. In series [1] (setting [12]), the “Body composition: ash” value is listed as 2.45 ± 0.04 % BW, the “Body composition: fat” value was found to be 11.5 ± 0.64 % BW, the “Body composition: protein” value was found to be 18.8 ± 0.19 % BW and the “Body composition: water” value worked out at 67.0 ± 0.50 % BW. Besides, the “Reduction of abdominal fat weight” value in [1] (compared to the CF+BI group) is on record as 20%. Further, the “Effect on ADG, ADFC or the GTF ratio” value in series [1] (dietary T3 or daily i.v. GRF alone, or in combination) is given as “did not significantly affect”. The “Growth performance (body weight gain and feed efficiency)” value in series [2] is “reduced body weight gain and feed efficiency”. Besides, the “Effect upon weight gain” value in series [3] (0.1 ppm T3 in finishing feed) was “no significant adverse effect”. In addition, in series [3] (0.25 ppm T3), the “Increase of protein accretion in breast and leg muscle” value is 45-88%; the “Reduction of abdominal fat weight” value was 22%. Besides, in [3] (setting [13]), the “Increase of FAR of leg muscle” value stood at 45% and the “Increase of FAR of pectoralis major (breast muscle)” value is 88%. For the same molecule, in series [3] (0.25 ppm T3 in feed), the “Effect on growth rate” value was “virtually no statistically significant adverse effect”, the “Plasma T3 level” value stood at 2.7 ± 0.2 ng/mL and the “Plasma T3 level (control group = 100% of normal)” value was ~ 208%. Also, the “Increase of rate of protein synthesis in the leg muscle” value in series [3] (0.25 to 4 ppm of feed, p<0.05) is reported as “at least 49%”. Besides, in series [3] (1 ppm T3 in feed), the “Plasma T3 level” value was found to be 4.5 ± 0.8 ng/mL and the “Plasma T3 level (control group = 100% of normal)” value was ~ 346%. For the same molecule, the “Effect upon weight gain” value in series [3] (1 ppm T3 in finishing feed) is “some deviation from normal weight gain”. Besides, in [3] (4 ppm T3 in feed), the “Plasma T3 level” value came to 16.3 ± 2.6 ng/mL and the “Plasma T3 level (control group = 100% of normal)” value was ~ 125%. The “Increase of fractional degradation rate of breast muscle” value in [3] (4 ppm of T3) amounted to 116%. Besides, the “Increase of fractional synthesis rate (FSR) of the pectoralis major (breast) muscle” value in series [3] (4 ppm of T3, p<0.05) stood at 56%. The “Fractional Accretion Rate (FAR) in the pectoralis major (breast) muscle” value in [3] (T3 doses in the 1 to 4 ppm range) is recorded as “affected negatively”. The “Plasma GH levels” value in series [3] (dietary T3 during the finishing phase) is “decrease”. Further, in series [3] (dietary T3 treatment alone), the Glucagon secretion entry is listed as “increased” and the Insulin secretion result is recorded as “depresses”. The “Protein synthesis rate in breast muscle” value in series [3] (lower doses of T3 (0.25 to 1 ppm)) was “only a slight effect”. In addition, in [3] (setting [14]), the “Depression of body weight gain” value was no more than 57% and the “Depression of feed consumption” value is reported as no more than 35%. Besides, in series [4] (5 to 7 weeks of age, T3 0.25 ppm in feed, GRF 10 μg/kg i.m. three times daily, 25% protein ration, mean ± SEM of four pens), the “ADG (average daily weight gain)” value is 76.5 ± 3.0. Besides, in [4] (setting [15]), the “ADFC (average daily feed consumption)” value was determined as 185.1 ± 7.1 and the “GTF (gain-to-feed ratio)” value is 0.414 ± 0.01. For the same molecule, the “Reduction of total body fat content” value in [4] (7-week-old chickens, compared to the CF+BI group) is 10%. Also, in series [4] (7 weeks of age, T3 0.25 ppm, GRF 10 μg/kg i.m. 3x daily, mean ± SEM of four pens), the “Final body weight BW” value was found to be 2.75 ± 0.05 kg. Further, in series [4] (setting [16]), the “Body composition: ash” value is given as 2.24 ± 0.08 % BW, the “Body composition: fat” value is given as 10.0 ± 0.78 % BW, the “Body composition: protein” value stood at 17.1 ± 0.26 % BW and the “Body composition: water” value is recorded as 67.6 ± 0.70 % BW. Moreover, in [4] (setting [17]), the “Relative weight of abdominal fat pad” value is 1.12 ± 0.11 % BW and the “Relative weight of liver” value was found to be 1.99 ± 0.09 % BW. The “Reduction of abdominal fat weight” value in series [4] (compared to the CF+BC group, P<0.05) is 31%. The “Effect on ADG, ADFC or GTF” value in series [4] (dietary T3 or daily i.m. GRF) is “no effect”.
Consider `NC(=O)[C@@H]1CCCN1C(=O)[C@H](Cc1c[nH]cn1)NC(=O)[C@@H]1CCC(=O)N1` [TRH, pyro-L-Glu-L-His-L-Pro-NH2], for which, in series [5], the Growth rate entry is “capable of increasing the growth rate”. Also, in series [6], the “Plasma GH levels” value is listed as “elevated”. Further, the “Growth rate and feed efficiency” value in series [6] (alone or in combination) is given as “failed to stimulate growth rate or improve feed efficiency”. For the same molecule, in [7], the “Effect on protein:fat ratio” value is “decrease”.
As for `CCCc1cc(=O)[nH]c(=S)[nH]1` [propylthiouracil], in series [8], the Body fat entry was “increased accumulation of body fat” and the Plasma insulin levels result is listed as “elevated”. Further, in series [7], the “Effect on protein:fat ratio” value was “decrease”.

B1: GH: growth hormone (e.g. ncGH, natural chicken GH) (protein, UniProt P08998 26-216, looked up)
Somatotropin: TFPAMPLSNLFANAVLRAQHLHLLAAETYKEFERTYIPEDQRYTNKNSQAAFCYSETIPAPTGKDDAQQKSDMELLRFSLVLIQSWLTPVQYLSKVFTNNLVFGTSDRVFEKLKDLEEGIQALMRELEDRSPRGPQLLRPTYDKFDIHLRNEDALLKNYGLLSCFKKDLHKVETYLKVMKCRRFGESNCTI
In the case of B1, the “Effect on protein:fat ratio” value in series [7] is “decrease”.

B2: pGH: purified porcine growth hormone (protein, UniProt P01248 27-216, looked up)
Somatotropin: FPAMPLSSLFANAVLRAQHLHQLAADTYKEFERAYIPEGQRYSIQNAQAAFCFSETIPAPTGKDEAQQRSDVELLRFSLLLIQSWLGPVQFLSRVFTNSLVFGTSDRVYEKLKDLEEGIQALMRELEDGSPRAGQILKQTYDKFDTNLRSDDALLKNYGLLSCFKKDLHKAETYLRVMKCRRFVESSCAF
For B2, in series [9], the “Improvement of feed conversion” value is 7-19%, the “Increase of growth rate” value is given as 10-14%, the “Increase of muscle mass” value was 24-36% and the “Reduction of carcass fat content” value is 18-25%.
